Structures can show the parent of a compound that is named as a salt.
Columns and labels:
db/db mice = experiment: Oral glucose tolerance test in db/db mice (study IV); type: in vivo; conditions: Compound Ia 0.1 mg/kg, Vildagliptin 1 mg/kg, Metformin 100 mg/kg; for % improvement in AUC glucose vs control: Table 19 and text, OGTT after 14 days of treatment
Description: 1. […] 17. The treatment was given oral gavages once daily for 14 days.
The OGTT procedure followed is as given below—

[1] = system: high fat high cholesterol fed Syrian golden hamster; experiment: Lipid lowering effects with Atorvastatin in HF-HC fructose diet Syrian golden hamsters (study V); type: in vivo
Description: The in-vivo efficacy was done in high fat high cholesterol fed Syrian golden hamster. It is an excellent model to investigate hepatic assembly and secretion of lipoprotein since its lipoprotein metabolism closely resembles that of humans as they have cholesteryl ester transfer protein (CETP) as like human. Feeding high fat high cholesterol diet to Syrian golden hamster causes hypercholesterolemia and hypertriglyceridemia which causes an increase in LDL levels and decrease in HDL-C/TC ratio.
In this experiment, 18 Syrian golden hamsters which were kept on high fat-high cholesterol (HF-HC) fructose diet were divided into 3 treatment groups and one group was on normal diet control which was NIN (National Institute of Nutrition, NIN diet) control, the treatment given was as per Table no. 1. […] 20. The treatment was given oral gavages once daily for 13 days.
Calculations of the % change in LDL-C levels, triglyceride and LDL-C/HDL-C ratio (Vs HF-HC fructose diet control) were performed using MS Excel.

[2] = HF-HC fructose diet hamsters, 13 days, Compound (Ia) 3 mg/kg, Atorvastatin 0.5 mg/kg
[3] = Table 23, LDL/HDL ratio, Day 13, Compound Ia 3 mg/kg, Atorvastatin 0.5 mg/kg

## CCO[C@@H](Cc1ccc(OCCn2c(C)ccc2-c2ccc(SC)cc2)cc1)C(=O)O [Compound (Ia), Benzenepropanoic acid, α-ethoxy-4-[2-[2-methyl-5-[4-(methylthio)phenyl]-1H -pyrrol-1-yl]ethoxy]-, magnesium salt]
db/db mice; Table 19, OGTT day 14, fasting, glucose load 2 gm/kg
  AUC Glucose: 69613.3 mg·min/dL
db/db mice
  % improvement in AUC glucose vs control: does no show any improvement
db/db mice; listed as Compound Ia
  % improvement in AUC glucose vs control: −12.0%
[1]; [2]
  reduction in LDL-C: 14.8%
  reduction in LDL-C/HDL-C ratio, atherogenic index: does not showed any reduction
  reduction in triglyceride: 65.2%
[1]; Table 21, Day 0 (pretreatment), HF-HC fructose diet hamsters, Compound Ia 3 mg/kg, Atorvastatin 0.5 mg/kg oral once daily 13 days
  Serum LDL-C (mg/dl) Day 0: 75.1 mg/dL
[1]; Table 21, Day 13, Compound Ia 3 mg/kg, Atorvastatin 0.5 mg/kg
  LDL-C % Change vs Day 0: 0.1%
[1]; Table 21, Day 13, HF-HC fructose diet hamsters, Compound Ia 3 mg/kg, Atorvastatin 0.5 mg/kg oral once daily 13 days
  Serum LDL-C (mg/dl) Day 13: 73.1 mg/dL
[1]; Table 21, LDL-C, Day 13, Compound Ia 3 mg/kg, Atorvastatin 0.5 mg/kg
  % Change vs HF-HC Fructose Control: −14.8%
[1]; Table 22, Day 0 (pretreatment), HF-HC fructose diet hamsters, Compound Ia 3 mg/kg, Atorvastatin 0.5 mg/kg oral once daily 13 days
  Serum triglyceride (mg/dl) Day 0: 418.4 mg/dL
[1]; Table 22, Day 13, Compound Ia 3 mg/kg, Atorvastatin 0.5 mg/kg
  TG % Change vs Day 0: −64.0%
[1]; Table 22, Day 13, HF-HC fructose diet hamsters, Compound Ia 3 mg/kg, Atorvastatin 0.5 mg/kg oral once daily 13 days
  Serum triglyceride (mg/dl) Day 13: 149.5 mg/dL
[1]; Table 22, triglyceride, Day 13, Compound Ia 3 mg/kg, Atorvastatin 0.5 mg/kg
  % Change vs HF-HC Fructose Control: −65.2%
[1]; Table 23, Day 0 (pretreatment), HF-HC fructose diet hamsters, Compound Ia 3 mg/kg, Atorvastatin 0.5 mg/kg
  LDL/HDL RATIO Day 0: 0.79
[1]; Table 23, Day 13, HF-HC fructose diet hamsters, Compound Ia 3 mg/kg, Atorvastatin 0.5 mg/kg
  LDL/HDL RATIO Day 13: 0.82
[1]; [3]
  % Change vs HF-HC Fructose Control: 8.5%
  Change vs Day 0: 6.4
